The values below come from patent publication US20190284192A1, “NITROGENOUS MACROCYCLIC COMPOUND, PREPARATION METHOD THEREFOR, PHARMACEUTICAL COMPOSITION AND APPLICATION THEREOF” (LUOXIN PHARMACEUTICAL (SHANGHAI) CO., LTD., priority 2016, published 2019).

One data set concerns the target T1, BRD4 (BD2) (Homo sapiens, UniProt O60885).
T1 construct: Each member comprises two tandem bromodomains (BD1 and BD2) for recognizing the acetylated lysine residues
The data set is described as follows: BRD4 (BD2) bromodomain binding, HTRF. To be noted: 2 h incubation at r.t. (In general: In TR-FRET formats the signal depends on donor and acceptor labels being close together.)

A further data set deals with MV-4-11 cells. As to the kind of experiment: Inhibitory effect on MV-4-11 cells (CellTiter-Glo). To be noted: Homo sapiens, MV4-11; 72 hours, CellTiter-Glo; read-out: MV-4-11. The data set is classed as cell-based. On the technique in general: Cellular ATP, detected with luciferase, serves as a proxy for viable cell number.
Data set [1] can be described thus: Metabolic stability in mouse liver microsomes. To be noted: mouse liver microsomes 0.5 mg/mL, NADPH, 37° C.; for CLint scaled at 1 µM: pH 7.4, read-out: MLM_CLint. The class given is in vitro ADME. The essentials:
(§1)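 Compound at 1.5 μM in liver microsome dosing solution (pH 7.4 potassium phosphate, 1.0 mM EDTA) was incubated at 37 °C with NADPH and sampled at 0, 5, 15, 30, 45 min in duplicate, quenched with ACN. LC-MS/MS remaining compound fit to first-order decay; T1/2 = 0.693/K.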
(In general: Liver microsomes are a subcellular fraction often used to study metabolism.)

Data set [2] is described as follows: Metabolic stability in human liver microsomes. The data set is classed as in vitro ADME. To be noted: human liver microsomes 0.5 mg/mL, NADPH, 37° C.; for CLint scaled at 1 µM: pH 7.4, read-out: HLM_CLint. The gist of the method: as §1
The next data set addresses T2, BRD4 (BD1) (Homo sapiens, UniProt O60885).
T2 construct: Each member comprises two tandem bromodomains (BD1 and BD2) for recognizing the acetylated lysine residues
The data set is described as follows: BRD4 (BD1) bromodomain binding, HTRF. To be noted: 2 h incubation at r.t.

A short description of data set [3]: Cassette pharmacokinetic study, intravenous or oral administration. The class given is in vivo, female Balb/c nude mice. More on the design: Cmax: unit not given here. To be noted: for F: PO 2 mg/kg vs IV 0.5 mg/kg; for AUC(0-inf) / AUC(0-t) / MRT inf / clearance / half-life / Vd / Tmax: female, Balb/c nude, mouse, whole blood; for AUC(0-inf) / AUC(0-t) / MRT inf / clearance / half-life / Vd / Tmax / Cmax: N = 3, cassette; for half-life: read-out: Terminal t1/2 (converted); for Vd: read-out: Vss. The protocol: Determinations of the pharmacokinetic parameters of ABBV-075 (standard control), 4009, 4018, 4026 and 4031 in femal Balb/c nude mice after intravenous or oral administration.
Detailed Experimental Steps:
6 female Balb/c nude mice weighing 18-20 g were divided into two groups (3/group), after fixation, the intravenous group: 0.5 mg/kg (5 mL/kg) injected by caudal vein (N=3); the oral group: 2 mg/kg (10 mL/kg) by intragastic administration (N=3). Approximately 20 μL of blood was drawn behind the eyeball at the sampling point and placed in EDTA-2K tube. The sample was immediately diluted with 40 μL of double distilled water and vortexed until well mixed. Blood samples were stored at approximately −70° C. and submitted to the BA group for analysis (LC/MS). 30 μL of blood sample was added with 200 μL of H2O and 30 μL of IS dexamethasone, 200 ng/mL), layered by LLE, and 1 mL of MTBW was added as an organic extraction solvent. The mixture was vortexed for 10 min and centrifuged at 10,000 rpm for 5 min. 850 μL of the supernatant was evaporated under nitrogen until desiccated. The desiccated extract was re-mixed with 150 μL of 50% methanol, vortexed for 2 min, and then analyzed by injecting 5 μL of the supernatant into LC-MS/MS.
2. Intravenous/oral administration formula: 5% DMSO, 95% (10% HP-3-CD in water)
3. PK calculation parameter used non-compartment model, WinNonlin 6.4 software calculation

Like-named read-outs stand apart in the source and are kept apart here.

By AUC(0-inf) is commonly meant the area under the concentration-time curve extrapolated to infinity. As usually defined, the AUC(0-t) is the area under the concentration-time curve up to a stated or last time point. As usually defined, the MRT inf is the average time that molecules of a dose stay in the body. What is called Tmax is the time from dosing to the highest level.

Take `CCS(=O)(=O)Nc1ccc(Oc2ccc(F)cc2F)c(-c2cn(C)c(=O)c3[nH]ccc23)c1` [ABBV-075]: at BRD4 (BD2), the IC50 turned out to be 1 nM. The IC50 in the data set on MV-4-11 cells is 7 nM. Moreover, in data set [1], the MLM_T1/2 was 81.11 min and the CLint scaled at 1 µM amounted to 67.3 mL/min/kg. Besides, in data set [2], the HLM_T1/2 is given as 1465.60 min and the CLint scaled at 1 µM worked out at 1.19 mL/min/kg. Further, at BRD4 (BD1), the IC50 stood at 2 nM. In data set [3], the F amounted to 62.5%. In data set [3] (IV 0.5 mg/kg), this compound had an area under the curve AUC(0-inf) of 510 ng·h/mL, an AUC(0-t) of 457 ng·h/mL, an MRT inf of 3.1 h and a clearance of 16.4 mL/min/kg. Besides, in data set [3] (IV 0.5 mg/kg), the half-life was 2.8 h and the Vd is 3.06 L/kg. Besides, in data set [3] (PO 2 mg/kg), the area under the curve AUC(0-inf) amounted to 1680 ng·h/mL, the area under the curve AUC(0-t) turned out to be 1140 ng·h/mL, the Tmax came out at 1 h and the half-life was 4.56 h.

Compound `CCS(=O)(=O)Cc1ccc2c(c1)-c1cn(C)c(=O)cc1[C@H](C)N=C2c1ccc(F)cc1` [Compound 4026, (S)-10-((ethylsulfone)methyl)-7-(4-fluorophenyl)-2,5-dimethyl-2,5-dihydro-3H-benzo[c]pyrido[3,4-e]azepin-3-ketone] came in with an IC50 at BRD4 (BD2) of 1 nM. The IC50 with MV-4-11 cells stood at 4 nM. In data set [1], the MLM_T1/2 entry is listed as “∞”. The HLM_T1/2 entry in data set [2] was “∞”. The same compound displayed an IC50 on BRD4 (BD1) of 2 nM. Also, the F in data set [3] amounted to 89.5%. In data set [3] (PO 2 mg/kg), the Cmax was found to be 1082, the AUC(0-inf) came out at 4050 ng·h/mL, the exposure AUC(0-t) stood at 3740 ng·h/mL and the time to peak (Tmax) stood at 0.5 h. For the same compound, the half-life in data set [3] (PO 2 mg/kg) was 4.35 h. In data set [3] (IV 0.5 mg/kg), this compound gave an area under the curve AUC(0-inf) of 1140 ng·h/mL, an AUC(0-t) of 1100 ng·h/mL, an MRT inf of 3.21 h and a clearance of 7.5 mL/min/kg. Also, in data set [3] (IV 0.5 mg/kg), the half-life was 2.85 h and the Vd is 1.43 L/kg.

On BRD4 (BD2), `CCS(=O)(=O)Cc1ccc2c(c1)-c1cn(C)c(=O)cc1CN=C2c1ccc(F)cc1` [Compound 4009, 7-(4-fluorophenyl)-2-methyl-10-(ethylsulfonemethyl)-2H-benzo[c]pyrido[3,4-e]azepin-3(5H)-ketone] gave an IC50 of 5 nM. Further, in the data set with MV-4-11 cells, the IC50 is 53 nM. Further, in data set [1], the MLM_T1/2 is 588.07 min and the CLint scaled at 1 µM was determined as 9.28 mL/min/kg. Moreover, in data set [2], the HLM_T1/2 worked out at 471.41 min and the CLint scaled at 1 µM was 3.69 mL/min/kg. The compound also had an IC50 at BRD4 (BD1) of 6 nM. In data set [3], this compound displayed an F of 99.7%. In addition, in data set [3] (PO 2 mg/kg), the Cmax was 742, the AUC(0-inf) came out at 2350 ng·h/mL, the AUC(0-t) was 2250 ng·h/mL and the time to peak (Tmax) came to 0.667 h. Further, in data set [3] (PO 2 mg/kg), the half-life was 4.21 h. In data set [3] (IV 0.5 mg/kg), the AUC(0-inf) amounted to 590 ng·h/mL, the exposure AUC(0-t) is 575 ng·h/mL, the mean residence time MRT inf was found to be 1.61 h and the clearance was 14.2 mL/min/kg. Moreover, in data set [3] (IV 0.5 mg/kg), the half-life is 1.69 h and the Vd was 1.38 L/kg.
